Experimental data published in patent US11028061B2, “Modulators of myocyte lipid accumulation and insulin resistance and methods of use thereof” (Sanford Burnham Prebys Medical Discovery Institute, priority 2015, dated 2021).

system: primary murine skeletal myocytes; assay: TAG accumulation in primary murine skeletal myocytes; assay type: cell-based; settings: Mus musculus, read-out: Activity Score (IC50), triacylglyceride (TAG) accumulation

`COc1ccc(-c2csc(NC(=O)c3ccc(OCC(=O)N4CCC(=O)CC4)c(OC)c3)n2)cc1` [Cpd. 12, 3-methoxy-N-(4-(4-methoxyphenyl)thiazol-2-yl)-4-(2-oxo-2-(4-oxopiperidin-1-yl)ethoxy)benzamide] and `CCNc1ccc(C(=O)Nc2nc(-c3ccc(OC)cc3)cs2)cc1OCCO` [Cpd. 99, 4-(ethylamino)-3-(2-hydroxyethoxy)-N-(4-(4-methoxyphenyl)thiazol-2-yl)benzamide] fall in the same range of IC50: 1 to 10 µM for the first, 1 to 10 µM for the second.

same assay, conditions: Mus musculus; primary murine skeletal myocytes; read-out: Activity Score (IC50), triacylglyceride (TAG) accumulation

`Cc1cccc(-c2csc(NC(=O)c3ccc(OCC(=O)N4CCOCC4)cc3)n2)c1` [Cpd. 51, 4-(2-morpholino-2-oxoethoxy)-N-(4-(m-tolyl)thiazol-2-yl)benzamide] and `O=C(Nc1nc(-c2cccc(F)c2)cs1)c1ccc(OCC(=O)N2CCOCC2)cc1` [Cpd. 53, N-(4-(3-fluorophenyl)thiazol-2-yl)-4-(2-morpholino-2-oxoethoxy)benzamide] cannot be ordered by IC50: < 1 µM for the first, < 1 µM for the second.

`CNC(=O)CNc1ccc(C(=O)Nc2nc(-c3ccc(OC)cc3Cl)cs2)cc1` [compound 71, N-(4-(2-chloro-4-methoxyphenyl)thiazol-2-yl)-4-((2-(methylamino)-2-oxoethyl)amino)benzamide] and `COc1ccc(-c2csc(NC(=O)c3ccc(NCC(=O)N(C)C)cc3)n2)c(Cl)c1` [compound 72, N-(4-(2-chloro-4-methoxyphenyl)thiazol-2-yl)-4-((2-(dimethylamino)-2-oxoethyl)amino)benzamide] cannot be ordered by IC50: < 1 µM for the first, < 1 µM for the second.

`COc1cc(C(=O)Nc2nc(-c3ccc([N+](=O)[O-])cc3)cs2)ccc1OCC(=O)N1CCOCC1` [Cpd. 33, 3-methoxy-4-(2-morpholino-2-oxoethoxy)-N-(4-(4-nitrophenyl)thiazol-2-yl)benzamide] and `COc1cc(C(=O)Nc2nc(-c3ccc(C)cc3)cs2)ccc1OCC(=O)N1CCOCC1` [Cpd. 30, 3-methoxy-4-(2-morpholino-2-oxoethoxy)-N-(4-(p-tolyl)thiazol-2-yl)benzamide] cannot be ordered by IC50: < 1 µM for the first, < 1 µM for the second.

First: COc1ccc(-c2csc(NC(=O)c3ccc(OCC(=O)N4CCN(S(C)(=O)=O)CC4)c(OC)c3)n2)cc1 [Cpd. 13, 3-methoxy-N-(4-(4-methoxyphenyl)thiazol-2-yl)-4-(2-(4-(methylsulfonyl)piperazin-1-yl)-2-oxoethoxy)benzamide]
Second: COc1ccc(-c2csc(NC(=O)c3ccc(OCC(=O)N4CCN(C)CC4)c(OC)c3)n2)cc1 [Cpd. 9, 3-methoxy-N-(4-(4-methoxyphenyl)thiazol-2-yl)-4-(2-(4-methylpiperazin-1-yl)-2-oxoethoxy)benzamide]
The IC50 of the first is higher: > 10 µM for the first, < 1 µM for the second.

`COc1ccc(-c2csc(NC(=O)c3ccc(OCC(=O)NCCN4CCCCC4)c(OC)c3)n2)cc1` [Cpd. 14, 3-methoxy-N-(4-(4-methoxyphenyl)thiazol-2-yl)-4-(2-oxo-2-((2-(piperidin-1-yl)ethyl)amino)ethoxy)benzamide] and `COc1ccc(-c2csc(NC(=O)c3ccc(OCC(=O)N4CCCCC4)c(OC)c3)n2)cc1` [Cpd. 8, 3-methoxy-N-(4-(4-methoxyphenyl)thiazol-2-yl)-4-(2-oxo-2-(piperidin-1-yl)ethoxy)benzamide] fall in the same range of IC50: 1 to 10 µM for the first, 1 to 10 µM for the second.

`COc1ccc(-c2csc(NC(=O)c3ccc(OCC(=O)N4CCOCC4)cc3)n2)c(F)c1` [Cpd. 56, N-(4-(2-fluoro-4-methoxyphenyl)thiazol-2-yl)-4-(2-morpholino-2-oxoethoxy)benzamide] and `COc1ccc(-c2csc(NC(=O)c3ccc(OCC(=O)N4CCOCC4)cc3)n2)c(Cl)c1` [Cpd. 54, N-(4-(2-chloro-4-methoxyphenyl)thiazol-2-yl)-4-(2-morpholino-2-oxoethoxy)benzamide] cannot be ordered by IC50: < 1 µM for the first, < 1 µM for the second.

`COc1ccc(-c2csc(NC(=O)c3cccc(OCC(=O)N4CCOCC4)c3)n2)cc1` [Cpd. 94, N-(4-(4-methoxyphenyl)thiazol-2-yl)-3-(2-morpholino-2-oxoethoxy)benzamide] and `COc1cccc(-c2csc(NC(=O)c3cccc(OCC(=O)N4CCOCC4)c3)n2)c1` [Cpd. 96, N-(4-(3-methoxyphenyl)thiazol-2-yl)-3-(2-morpholino-2-oxoethoxy)benzamide] fall in the same range of IC50: 1 to 10 µM for the first, 1 to 10 µM for the second.

Going from `COc1ccc(-c2csc(NC(=O)c3ccc(OCC(=O)NCc4ccccn4)c(OC)c3)n2)cc1` [Cpd. 24, 3-methoxy-N-(4-(4-methoxyphenyl)thiazol-2-yl)-4-(2-oxo-2-((pyridin-2-ylmethyl)amino)ethoxy) Benzamide] to `CNC(=O)COc1ccc(C(=O)Nc2nc(-c3ccc(OC)cc3)cs2)cc1OC` [Cpd. 18, 3-methoxy-N-(4-(4-methoxyphenyl)thiazol-2-yl)-4-(2-(methylamino)-2-oxoethoxy)benzamide], the IC50 falls from > 10 µM to < 1 µM. The second is the more potent here.

`CCOc1ccc(-c2csc(NC(=O)c3ccc(OCC(=O)N4CCOCC4)c(OC)c3)n2)cc1` [Cpd. 28, N-(4-(4-ethoxyphenyl)thiazol-2-yl)-3-methoxy-4-(2-morpholino-2-oxoethoxy)benzamide] and `COc1cc(C(=O)Nc2nc(-c3ccc(OC(C)C)cc3)cs2)ccc1OCC(=O)N1CCOCC1` [Cpd. 29, N-(4-(4-isopropoxyphenyl)thiazol-2-yl)-3-methoxy-4-(2-morpholino-2-oxoethoxy)benzamide] cannot be ordered by IC50: < 1 µM for the first, < 1 µM for the second.

`O=C(Nc1nc(-c2ccc(OC(F)F)cc2)cs1)c1ccc(OCC(=O)N2CCOCC2)cc1` [Cpd. 40, N-(4-(4-(difluoromethoxy)phenyl)thiazol-2-yl)-4-(2-morpholino-2-oxoethoxy)benzamide] and `Cc1ccccc1-c1csc(NC(=O)c2ccc(OCC(=O)N3CCOCC3)cc2)n1` [Cpd. 47, 4-(2-morpholino-2-oxoethoxy)-N-(4-(o-tolyl)thiazol-2-yl)benzamide] cannot be ordered by IC50: < 1 µM for the first, < 1 µM for the second.

First: COc1cc(C(=O)Nc2nc(-c3ccccc3)c(Cc3ccccc3)s2)ccc1OCC(=O)N1CCOCC1 [Cpd. 84, N-(5-benzyl-4-phenylthiazol-2-yl)-3-methoxy-4-(2-morpholino-2-oxoethoxy)benzamide]
Second: COc1cc(C(=O)Nc2nc(Cc3ccccc3)cs2)ccc1OCC(=O)N1CCOCC1 [Cpd. 85, N-(4-benzylthiazol-2-yl)-3-methoxy-4-(2-morpholino-2-oxoethoxy)benzamide]
The IC50 of the first is lower: < 1 µM for the first, 1 to 10 µM for the second. The first is the more potent here.

First: COc1ccc(-c2csc(NC(=O)c3ccc(OCC(=O)NCC4CC4)c(OC)c3)n2)cc1 [Cpd. 10, 4-(2-((cyclopropylmethyl)amino)-2-oxoethoxy)-3-methoxy-N-(4-(4-methoxyphenyl)thiazol-2-yl)benzamide]
Second: COc1ccc(-c2csc(NC(=O)c3ccc(OCC(=O)NC4CCC4)c(OC)c3)n2)cc1 [Cpd. 22, 4-(2-(cyclobutylamino)-2-oxoethoxy)-3-methoxy-N-(4-(4-methoxyphenyl)thiazol-2-yl)benzamide]
The IC50 of the first is higher: 1 to 10 µM for the first, < 1 µM for the second.

First: CNC(=O)COc1ccc(C(=O)Nc2nc(-c3ccc(OC)cc3Cl)cs2)cc1 [Cpd. 58, N-(4-(2-chloro-4-methoxyphenyl)thiazol-2-yl)-4-(2-(methylamino)-2-oxoethoxy)benzamide]
Second: COc1ccc(-c2csc(NC(=O)c3ccc(OCC(N)=O)cc3)n2)c(Cl)c1 [Cpd. 57, 4-(2-amino-2-oxoethoxy)-N-(4-(2-chloro-4-methoxyphenyl)thiazol-2-yl)benzamide]
The IC50 of the first is lower: < 1 µM for the first, 1 to 10 µM for the second. The first is the more potent here.

`COc1ccc(-c2csc(NC(=O)c3ccc(OCC(=O)N(C)C)cc3)n2)c(Cl)c1` [Cpd. 60, N-(4-(2-chloro-4-methoxyphenyl)thiazol-2-yl)-4-(2-(dimethylamino)-2-oxoethoxy)benzamide] and `CC(C)Oc1ccc(-c2csc(NC(=O)c3ccc(OCC(=O)N4CCOCC4)cc3)n2)c(Cl)c1` [Cpd. 55, N-(4-(2-chloro-4-isopropoxyphenyl)thiazol-2-yl)-4-(2-morpholino-2-oxoethoxy)benzamide] cannot be ordered by IC50: < 1 µM for the first, < 1 µM for the second.

`COc1ccc(-c2csc(NC(=O)c3ccc(OCC(=O)N4CCOCC4)nc3)n2)cc1` [Cpd. 93, N-(4-(4-methoxyphenyl)thiazol-2-yl)-6-(2-morpholino-2-oxoethoxy)nicotinamide] and `COc1ccc(-c2csc(NC(=O)c3ccc(OCC(=O)N4CCOCC4)cn3)n2)cc1` [Cpd. 92, N-(4-(4-methoxyphenyl)thiazol-2-yl)-5-(2-morpholino-2-oxoethoxy)picolinamide] cannot be ordered by IC50: > 10 µM for the first, > 10 µM for the second.

First: COc1cc(C(=O)Nc2nc(-c3ccc(O)cc3)cs2)ccc1OCC(=O)N1CCOCC1 [Cpd. 27, N-(4-(4-hydroxyphenyl)thiazol-2-yl)-3-methoxy-4-(2-morpholino-2-oxoethoxy)benzamide]
Second: COc1ccc(-c2csc(NC(=O)c3ccc(OCCN4CCOCC4)c(OC)c3)n2)cc1 [Cpd. 90, 3-methoxy-N-(4-(4-methoxyphenyl)thiazol-2-yl)-4-(2-morpholinoethoxy)benzamide]
The IC50 of the first is lower: < 1 µM for the first, 1 to 10 µM for the second.

`COc1cc(C(=O)Nc2nc(-c3ccc(Cl)c(Cl)c3)cs2)ccc1O` [Cpd. 5, N-(4-(3,4-dichlorophenyl)thiazol-2-yl)-4-hydroxy-3-methoxybenzamide] and `COc1cc(C(=O)Nc2nc(-c3ccc(C#N)cc3)cs2)ccc1O` [Cpd. 6, N-(4-(4-cyanophenyl)thiazol-2-yl)-4-hydroxy-3-methoxybenzamide] fall in the same range of IC50: 1 to 10 µM for the first, 1 to 10 µM for the second.

`COc1cc(C(=O)Nc2cccc(-c3ccccc3)c2)ccc1OCC(=O)N1CCOCC1` [Cpd. 83, N-([1,1′-biphenyl]-3-yl)-3-methoxy-4-(2-morpholino-2-oxoethoxy)benzamide] and `COc1cc(C(=O)Nc2ncc(Cc3cccc(C(F)(F)F)c3)s2)ccc1OCC(=O)N1CCOCC1` [Cpd. 100, 3-methoxy-4-(2-morpholino-2-oxoethoxy)-N-(5-(3-(trifluoromethyl)benzyl)thiazol-2-yl)benzamide] cannot be ordered by IC50: > 10 µM for the first, > 10 µM for the second.

First: COc1ccc(-c2csc(NC(=O)c3ccc(O)c(OC)c3)n2)cc1 [Cpd. 1, 4-hydroxy-3-methoxy-N-(4-(4-methoxyphenyl)thiazol-2-yl)benzamide]
Second: COc1ccc(-c2csc(NC(=O)c3ccc(NCC(=O)N4CCOCC4)cc3)n2)c(Cl)c1 [compound 70, N-(4-(2-chloro-4-methoxyphenyl)thiazol-2-yl)-4-((2-morpholino-2-oxoethyl)amino)benzamide]
The IC50 of the first is higher: > 10 µM for the first, < 1 µM for the second. The second is the more potent here.

`COc1ccc(-c2csc(NC(=O)CCC(=O)N3CCOCC3)n2)cc1` [Cpd. 82, N-(4-(4-methoxyphenyl)thiazol-2-yl)-4-morpholino-4-oxobutanamide] showed an IC50 of 1 to 10 µM.
